Where “and” joins values, the source holds several entries; their conditions need not be identical. Identical values can stand only once.
O=C(C(F)(F)C(F)(F)F)C(F)(C(F)(F)F)C(F)(F)F [dodecafluoro-2-methylpentan-3-one]
Conditions	thermal conductivity
272.59 K, 5172 kPa, Liquid, transient hot wire	0.06413 W/m/K
272.59 K, 11144 kPa, Liquid, transient hot wire	0.06607 W/m/K
272.63 K, 49567 kPa, Liquid, transient hot wire	0.07698 W/m/K
272.63 K, 49576 kPa, Liquid, transient hot wire	0.07734 W/m/K
272.66 K, 412 kPa, Liquid, transient hot wire	0.06211 W/m/K
272.66 K, 419 kPa, Liquid, transient hot wire	0.06231 W/m/K
272.66 K, 59545 kPa, Liquid, transient hot wire	0.08002 W/m/K
272.67 K, 59542 kPa, Liquid, transient hot wire	0.0797 W/m/K
272.71 K, 68218 kPa, Liquid, transient hot wire	0.08167 W/m/K
272.71 K, 68236 kPa, Liquid, transient hot wire	0.08151 W/m/K
273.05 K, 32241 kPa, Liquid, transient hot wire	0.07208 W/m/K
273.05 K, 32245 kPa, Liquid, transient hot wire	0.0724 W/m/K
273.05 K, 40384 kPa, Liquid, transient hot wire	0.07454 W/m/K
273.05 K, 40385 kPa, Liquid, transient hot wire	0.07459 W/m/K
273.05 K, 46114 kPa, Liquid, transient hot wire	0.07568 W/m/K
273.06 K, 24365 kPa, Liquid, transient hot wire	0.07006 W/m/K
273.06 K, 24371 kPa, Liquid, transient hot wire	0.0701 W/m/K
273.07 K, 5155 kPa, Liquid, transient hot wire	0.06386 W/m/K
273.07 K, 46114 kPa, Liquid, transient hot wire	0.07563 W/m/K
273.08 K, 5150 kPa, Liquid, transient hot wire	0.06384 W/m/K
273.1 K, 49569 kPa, Liquid, transient hot wire	0.07538 W/m/K
273.1 K, 49574 kPa, Liquid, transient hot wire	0.07648 W/m/K
273.11 K, 59541 kPa, Liquid, transient hot wire	0.07959 W/m/K
273.12 K, 59533 kPa, Liquid, transient hot wire	0.07966 W/m/K
273.14 K, 68200 kPa, Liquid, transient hot wire	0.0807 W/m/K
273.15 K, 404 kPa, Liquid, transient hot wire	0.06203 W/m/K
273.15 K, 68218 kPa, Liquid, transient hot wire	0.08063 W/m/K
273.16 K, 411 kPa, Liquid, transient hot wire	0.06212 W/m/K
273.17 K, 17550 kPa, Liquid, transient hot wire	0.06792 W/m/K
273.17 K, 17567 kPa, Liquid, transient hot wire	0.06791 W/m/K
273.18 K, 11149 kPa, Liquid, transient hot wire	0.066 W/m/K
273.18 K, 11163 kPa, Liquid, transient hot wire	0.06608 W/m/K
273.61 K, 5151 kPa, Liquid, transient hot wire	0.06408 W/m/K
273.61 K, 5162 kPa, Liquid, transient hot wire	0.06401 W/m/K
273.61 K, 59517 kPa, Liquid, transient hot wire	0.0783 W/m/K
273.62 K, 49564 kPa, Liquid, transient hot wire	0.07642 W/m/K
273.62 K, 49566 kPa, Liquid, transient hot wire	0.07674 W/m/K
273.62 K, 59531 kPa, Liquid, transient hot wire	0.07779 W/m/K
273.65 K, 40387 kPa, Liquid, transient hot wire	0.07442 W/m/K
273.65 K, 40395 kPa, Liquid, transient hot wire	0.07429 W/m/K
273.65 K, 46116 kPa, Liquid, transient hot wire	0.0758 W/m/K
273.65 K, 68183 kPa, Liquid, transient hot wire	0.08044 W/m/K
273.65 K, 68193 kPa, Liquid, transient hot wire	0.08038 W/m/K
273.66 K, 46113 kPa, Liquid, transient hot wire	0.07572 W/m/K
273.67 K, 32245 kPa, Liquid, transient hot wire	0.07209 W/m/K
273.67 K, 32247 kPa, Liquid, transient hot wire	0.07216 W/m/K
273.7 K, 424 kPa, Liquid, transient hot wire	0.0621 W/m/K
273.7 K, 24366 kPa, Liquid, transient hot wire	0.07016 W/m/K
273.7 K, 24370 kPa, Liquid, transient hot wire	0.07021 W/m/K
273.71 K, 432 kPa, Liquid, transient hot wire	0.06209 W/m/K
273.81 K, 17553 kPa, Liquid, transient hot wire	0.06799 W/m/K
273.82 K, 17545 kPa, Liquid, transient hot wire	0.06795 W/m/K
273.85 K, 11147 kPa, Liquid, transient hot wire	0.06585 W/m/K
273.86 K, 11155 kPa, Liquid, transient hot wire	0.06592 W/m/K
274.19 K, 59501 kPa, Liquid, transient hot wire	0.07896 W/m/K
274.2 K, 59504 kPa, Liquid, transient hot wire	0.07856 W/m/K
274.21 K, 49565 kPa, Liquid, transient hot wire	0.07644 W/m/K
274.21 K, 49570 kPa, Liquid, transient hot wire	0.07662 W/m/K
274.22 K, 68163 kPa, Liquid, transient hot wire	0.08055 W/m/K
274.22 K, 68173 kPa, Liquid, transient hot wire	0.08038 W/m/K
274.29 K, 46110 kPa, Liquid, transient hot wire	0.07571 W/m/K
274.3 K, 46107 kPa, Liquid, transient hot wire	0.07575 W/m/K
274.31 K, 40378 kPa, Liquid, transient hot wire	0.07418 W/m/K
274.31 K, 40391 kPa, Liquid, transient hot wire	0.07426 W/m/K
274.35 K, 32242 kPa, Liquid, transient hot wire	0.0723 W/m/K
274.35 K, 32249 kPa, Liquid, transient hot wire	0.0721 W/m/K
274.39 K, 24361 kPa, Liquid, transient hot wire	0.07 W/m/K
274.4 K, 24354 kPa, Liquid, transient hot wire	0.06999 W/m/K
274.53 K, 17544 kPa, Liquid, transient hot wire	0.068 W/m/K
274.54 K, 17533 kPa, Liquid, transient hot wire	0.06799 W/m/K
274.59 K, 11155 kPa, Liquid, transient hot wire	0.06582 W/m/K
274.6 K, 11134 kPa, Liquid, transient hot wire	0.06585 W/m/K
274.82 K, 59491 kPa, Liquid, transient hot wire	0.07869 W/m/K
274.82 K, 59496 kPa, Liquid, transient hot wire	0.07855 W/m/K
274.83 K, 68150 kPa, Liquid, transient hot wire	0.0803 W/m/K
274.83 K, 68153 kPa, Liquid, transient hot wire	0.08033 W/m/K
274.86 K, 49566 kPa, Liquid, transient hot wire	0.0765 W/m/K
274.86 K, 49571 kPa, Liquid, transient hot wire	0.07653 W/m/K
300.59 K, 40 kPa, Gas, hot wire	0.01173 W/m/K
300.6 K, 35 kPa, Gas, hot wire	0.01177 W/m/K
300.6 K, 40 kPa, Gas, hot wire	0.01173 W/m/K
300.61 K, 35 kPa, Gas, hot wire	0.01163 W/m/K
300.62 K, 27 kPa, Gas, hot wire	0.01161 W/m/K and 0.01166 W/m/K
300.8 K, 40 kPa, Gas, hot wire	0.01173 W/m/K and 0.01174 W/m/K
